{"source": "patent US20240207206A1", "about": "“Improved Topical Composition of Colchicine” (Zenvision Pharma LLP, priority 2019, published 2024)", "origin": "cited, not measured here", "details": "in water", "data": [{"smiles": "COc1cc2c(c(OC)c1OC)-c1ccc(OC)c(=O)cc1[C@@H](NC(C)=O)CC2", "note": "[Colchicine, (S)N-(5,6,7,9-tetrahydro-1,2,3, 10-tetramethoxy-9-oxobenzo[alpha]heptalen-7-yl) acetamide]", "values": [{"measurement": "Solubility", "value": "soluble in water"}]}]}
